In patent US11697833B2, “Antimicrobial susceptibility testing device and method for use with portable electronic device” (THE REGENTS OF THE UNIVERSITY OF CALIFORNIA, priority 2016, dated 2023):

Tested on: Klebsiella pneumoniae
Assay: Broth microdilution antimicrobial susceptibility testing (AST) of patient isolates, 96-well plate read for turbidity
Assay type: cell-based
Details: clinical patient isolate plates, 24 hours at 37° C, plate ID 1 (AM), 5 (A/S), 8 (MPM); for Diagnostician Decision (drug susceptibility interpretation): expert diagnostician visual reading (gold standard); for Automated System Decision (drug susceptibility interpretation): mobile phone-based AST plate reader, misdiagnosed cases
From the text: To determine whether a particular well 22 contains sufficient turbidity or not, a threshold-based approach is used to determine the cut-off transmittance value for each well 22. As the turbidity increases, the light transmittance through the well decreases. This operation is illustrated as operation 230 in FIGS. 4 and 5. In particular, thresholding is applied to average normalized well intensities of sample-containing wells to determine whether a particular well 22 is classified as “turbid” or “not turbid.” To choose an accurate threshold value for each well 22, the normalized transmittance values of wells 22 with no turbidity are extracted from a training set of blank reference plates 20 (i.e., plates with drugs but no microbes). For example, sixty (60) such plates that are blanks can be imaged to determine the mean transmittance at each well 22. […] In one embodiment, from this set of normalized transmittance values from wells 22 with no turbidity, a threshold of two times the standard deviation below the mean of that particular well 22 is used to determine whether a given test or sample-containing well 22 is statistically likely to have microbial growth represented by turbidity. Those wells 22 that have an averaged, normalized intensity level that is lower than two times the standard deviation below the mean “not turbid” value are classified as “turbid” while wells 22 that don't meet that criteria are classified as “not turbid.” Of course, other measures may be used for defining the cutoff or threshold. For example, fractional standard deviation may also be used for a cutoff or threshold. In addition, the threshold could also include a numerical cutoff of intensity or other multiple of the standard deviation.
With reference to FIG. 3, after the wells 22 are classified as “turbid” or “not turbid,” the software 112 generates MIC values and susceptibility characterizations for the drug(s) on the AST plate 20. For a given type of AST plate 20 (i.e., Gram-negative or Gram-positive), the MIC value for each drug is determined by finding the lowest concentration of drug in a drug-specific set of wells 22 that contains no turbidity. More specifically, the MIC value is based on the adjacent, well 22 that is classified as not turbid as this well represents the lowest concentration of antibiotic that prevented bacterial growth (i.e. the MIC). Depending on the selected microbe of interest, drug susceptibility interpretations are automatically made by the software 112 based on the MIC for each drug. FIG. 7 illustrates the layout of a map or table 114 for the AST plate 20 with susceptibility characterizations for each drug at different concentration levels. The map or table 114 with susceptibility characterizations for each drug at different concentration levels may be stored in a database (e.g., database 109 or other local storage device) as a look-up table or the like. In some embodiments, the map or table 114 for each different bacterium may be stored in the database 109 or local storage device. For example, in looking at FIG. 7 with the example of the drug ampicillin (AM), various concentrations (μg/ml) of this drug is present within wells B1, C1, D1, E1 along with a growth medium. If wells B1 and C1 were classified as turbid while wells D1 and E1 were classified as not turbid, the MIC reading would be 16 μg/ml (e.g., looking at concentration in well D1). Likewise, the susceptibility characterization would be classified as “indeterminate” using the map or table 114. […]

In the case of `CC1(C)S[C@@H]2[C@H](NC(=O)[C@H](N)c3ccccc3)C(=O)N2[C@H]1C(=O)O` [AM, Ampicillin], the “Diagnostician Decision (drug susceptibility interpretation)” value (“Diagnostician Decision” for short) is reported as “Indeterminate” and the “Automated System Decision (drug susceptibility interpretation)” value (“Automated System Decision” for short) is reported as “Resistant”.

`C[C@@H](O)[C@H]1C(=O)N2C(C(=O)O)=C(S[C@@H]3CN[C@H](C(=O)N(C)C)C3)[C@H](C)[C@H]12` [MPM, Meropenem] was tested, and the “Diagnostician Decision” value was “Susceptible” and the “Automated System Decision” value was “Resistant”.

For Ampicillin-Sulbactam [A/S], the “Diagnostician Decision” value was “Indeterminate” and the “Automated System Decision” value was “Resistant”.
